Key:
[1] = tested on: angiogenesis in the chick; assay: Chick angiogenesis model; type: in vivo; settings: chick
C57-BL/6J mice = assay: Murine model of proliferative retinopathy (retinopathy of prematurity, ROP); type: in vivo, mouse
Protocol: Litters of 7 day old C57-BL/6J mice, together with their nursing dams, are exposed to 80% oxygen in an incubator maintained at 23° C. and with a gas exchange of 1.5 L/min for 5 days according to the protocol described by Stitt et al. (1998). On postnatal day 12 (P12) the animals are returned to room air and sacrificed at various times posthyperoxia. Animals are treated with daily i.p. injections of either laminin agonists (10 μg per head per day) or vehicle control. Groups of room air controls are maintained in parallel with hyperoxia-exposed animals. Home Office project and personal licenses are held for this work. All animals are housed and maintained in accordance with the ARVO regulations for animal care in research.
Animals are sacrificed at pre-determined key stages in the vaso-obliteration (P7–P12), ischaemia (P12 onwards) and vaso-proliferative responses (P 12–21). At sacrifice, terminally anaesthetised animals have a single eye enucleated and the retina removed to be snap-frozen for later RNA-extraction (see below). The fellow eye is either perfused with fluorescein dextran or enucleated and fixed in 4% paraformaldehyde for histology, immunohistochemistry and in situ hybridisation.

tumour cells = settings: already known in the field; cited from earlier work
[2] = tested on: Endothelial cells (SK HEP-1 and BRCE); assay: Migration assay (colloidal gold track area); type: cell-based; settings: mammalian cell lines
Protocol: The method used was basically as described by Albrecht-Buehler (1977). Briefly, coverslips (22×22 mm) were treated in 5% detergent (7×; ICN Biomedicals) and washed in alcohol to remove grease. After drying, they were immersed in gelatin solution (Sigma, 300 Bloom; 0.5 g in 300 ml distilled H2O) for 10 min. The coverslips were then dried by placing in a 70° C. oven for 45 min.
Colloidal gold suspension was prepared by adding 11 ml distilled H2O and 6 ml Na2CO3 (36.5 mM) to 1.8 ml AuHCl4 (14.5 mM). The mixture was heated to 95° C. at which point 1.8 ml of freshly prepared 0.1% formaldehyde solution was added; the temperature was maintained at 95° C. A suspension of colloidal gold was formed which was brown to absorbed light and blue to transmitted light.
The gold suspension, was then added to petri dishes containing individual coverslips and the plates incubated at 37° C. for 45 min. After washing with CFS (3×4 ml) to remove unattached gold particles, the coverslips were transferred to 6-well cluster dishes and UV sterilised.
Endothelial cells (SK HEP-1 and BRCE) in culture media (0.3 ml) were seeded onto the coverslips at an approximate density of 5×10^3 cells per well. The cells were allowed to plate down for 2 h at 37° C. after which the treatments were added. Assay systems were maintained for a further 18 h after which the cells were fixed using 3% gluteraldehyde in cacodylate buffer (pH 7.2).
The assays were examined using a Leica DM1RB phase contrast microscope and Q500MC image analysis system incorporating a JVC TK-1280E colour camera (Leica, Milton Keynes, UK). The track images of at least 30 cells were videocaptured and the area (representing migration response) determined for each. Statistical analysis of these areas was then carried out using Macintosh Instat software to perform both Kruskal-Wallis analysis of variance and Mann-Whitney U-tests in order to compare the treatment groups with controls.

[3] = biological target: T1, 67 kDa laminin receptor (67-LR) (Homo sapiens, UniProt P08865); assay: 125I-laminin displacement (competition binding) on T47-D or SK HEP-1 cells; settings: relative to mEGF(33-42); 0.1 nM 125I-laminin, overnight 4° C.
T1 construct: endogenous in cells; host or cells: T47-D or SK HEP-1 cells (whole-cell suspension)
Protocol: ^125I-laminin was prepared using ^125I-labelled sodium iodide (Amersham, UK) and immobilised chloramine-T (Iodobeads; Pierce, Ill.). Prior to use, the beads were washed with 500 μl phosphate buffer (pH 6.5) to remove excess reagent from the support. These were then allowed to air dry and individual beads added to a solution of carrier free Na^125I, diluted with iodination buffer (phosphate buffer pH 7.4). The beads were allowed to equilibrate for 5 min.
Laminin (10 μg in 10 μl) was then diluted into the iodination buffer and the system incubated at 20° C. for 15 min. The solution was then removed from the reaction vessel and excess Na^125I and unincorporated ^125I2 separated from the iodinated protein by gel filtration on a GF-5 exclusion column (Pierce, Ill.). Iodinated laminin fractions were recovered at a specific activity of approximately 1.2 mCi/mg protein (864 Ci/mmol).
Near confluent cultures of T47-D or SK HEP-1 cells were removed from monolayer with 0.02% EGTA and passed through a G-25 syringe needle to produce single cell suspensions. Aliquots of each cell type (10^6 cells/ml) were dispensed into separate Ependorf tubes (1 ml each) and pelleted. The cells were then resuspended in 1 ml ice-cold RPMI (SK HEP-1) or DMEM (T47-D) containing 0.1% BSA and either laminin or synthetic peptide at the concentrations indicated. Iodinated laminin was then added to each cell suspension to give a final ^125I-laminin concentration of 0.1 nM (approximately 50,000 cpm). These mixtures were incubated overnight at 4° C.
The tubes were then microfuged at 10,000 g and the supernatant removed. After washing the pellet with 500 μl CFS, the remaining radioactivity was determined using a gamma radiation counter. Non-specific binding was determined by incubating cells with a 1000-fold molar excess of unlabelled laminin. All estimations were carried out in triplicate.
IC50 (concentration of unlabelled peptide required to produce 50% inhibition of radioligand binding) and EC50 (effective concentration for 50% inhibition of cell attachment) values were calculated using the Grafit curve-fitting programme (Erithacus Software, London, UK).

[4] = tested on: angiogenesis in the chick; settings: already known in the field; cited from earlier work
[5] = FIG. 1b versus 1a, 10 μg per head per day i.p.

CDPGYIGSR [Lam.β-1(925-933), CDPGYIGSR-NH2, synthetic peptide of amino acids 925–933 of the laminin β-1 chain, 67LR agonist, reference compound]
laminin agonist/antagonist character in chick [1]: partial laminin antagonist | re-canalisation of areas of vaso-obliteration (C57-BL/6J mice; [5]): promotes re-canalisation of areas of vaso-obliteration | uncontrolled angiogenic response of ROP (C57-BL/6J mice; [5]): prevents the uncontrolled angiogenic response of ROP | development of ROP (C57-BL/6J mice; neonates, daily intraperitoneal injections of 10 μg): development of ROP can be prevented | tumour establishment in mice (tumour cells): inhibit tumour establishment in mice | 67LR agonist/antagonist character in mammalian cell lines [2]: pure agonist | 67LR agonist/antagonist character in mammalian cell lines ([2]; listed as laminin β-1925-933): pure 67LR agonist | receptor affinity, 125I-laminin displacement (IC50), in words [3]: equipotent | angiogenesis in the chick [4]: inhibits angiogenesis in the chick

From patent US6995136B1, “Peptide fragments of murine epidermal growth factor as laminin receptor targets” (The Queen's University of Belfast, priority 1998, dated 2006)
